Each structure is given as a SMILES string.

Series [1] deals with ALK5 (Alk5p, cytochrome P450 CYP52). Briefly: In vitro enzymatic assay: conversion of radiolabeled fatty acids by microsomes of S. cerevisiae WAT11 expressing ALK5 (TLC). The note with it: yeast microsomes, NADPH; for Degree of conversion (%): gene ALK5, substrate 100 μM, ND: not detectable. How it is done:
(§1) In order to confirm their hypotheses according to which these enzymes catalyze fatty acids by oxygenation reaction, the inventors performed a screening using microsomes of S. cerevisiae WAT11 yeast transformed with 6 of the genes of the CYP52 family, cloned into Yarrowia lipolytica: ALK2, ALK3, ALK4, ALK5, ALK6 and ALK11.
(§2) The incubations were carried out on the model substrate constituted by lauric acid (C12.0), in the presence of NADPH.
(§3) The reaction mixtures were deposited on TLC plates, and then developed and analyzed.
(§4) In order to study the substrate specificity of these enzymes, the inventors incubated each microsomal preparation with free fatty acids of different size and at various levels of unsaturation (for example, myristic acid—C14:0, palmitic acid—C16:0, stearic acid—C18:0, oleic acid—C18:1 and linoleic acid—C18:2).
(§5) The expression of the proteins of the 6 members of the 6YP52 family cloned was carried out using a heterologous system specifically designed for the expression of cytochrome P450 enzymes, based on the pYeDP60 vector and the Saccharomyces cerevisiae WAT11 strain. The WAT11 strain was transformed with each of the pYeDP60 constructs using the lithium acetate LiAc method. The transformants were selected by plating out on YNB plates lacking uracil. The yeasts are left in culture and the expression of cytochrome P450 was induced as described in Pompon et al., 1996. For each transformant, the microsomes were prepared by manually breaking the cells using glass beads (0.45 mm in diameter) in 50 mM of a Tris-HCl buffer (pH 7.5) containing 1 mM EDTA and 600 mM of sorbitol. The homogenate was subjected to centrifugation (10 000 g-15 min) and the resulting supernatant was subjected to ultracentrifugation (100 000 g-1 h). The microsome pellet was resuspended in 50 mM Tris-HCl (pH 7.4), mM EDTA and 30% (v/v) of glycerol with a Potter-Elvehjem homogenizer. The volume of buffer used for resuspending the microsomes was determined by the approximate weight of the wet pellet of yeast obtained after growth (1 ml of buffer per 2 g of cell pellet). The total concentrations of protein in the microsomes were estimated using the Bradford test and homogenized at 15 mg/ml using the appropriate volume of resuspension buffer. The microsome preparation was stored at −20° C. All the experiments for the microsome preparations were carried out between 0 and 4° C.
(§6) The activity of the cytochrome P450 enzymes was evaluated in vitro using various radiolabeled fatty acids. The standard test (0.1 ml) contained […] sodium phosphate (pH 7.4), […] NADPH, a radiolabeled substrate (100 μM) and 0.15 mg of microsomal protein. The reactions were carried out in a waterbath at 27° C. with continuous shaking. The reaction is initiated by adding NADPH and stopped after 20 min by adding 20 μl of acetonitrile containing 0.2% of acetic acid.
The reaction mixtures were deposited directly on TLC plates covered with silica in order to separate the incubation products from the initial substrate. The plates were developed using an ether/petroleum ether/formic acid mixture (50:50:1, v/v/v). The plates were scanned using a radioactivity detector. The chromatograms resulting from the TLC make it possible to determine the degrees of conversion for each cytochrome P450/fatty acid combination, based on the radioactivity detected by the reader. The mobility of the products on the TLC plate is a good indication of the type of oxygenation reaction that was carried out on the substrate (i.e. hydroxylation, epoxidation, diacid formation).

Series [2] deals with ALK2 (Alk2p, cytochrome P450 CYP52). Briefly: In vitro enzymatic assay: conversion of radiolabeled fatty acids by microsomes of S. cerevisiae WAT11 expressing ALK2 (TLC). The conditions noted are these: yeast microsomes, NADPH; for Degree of conversion (%): gene ALK2, substrate 100 μM, ND: not detectable. How it is done: as §1, §2, §3, §4, §5, §6
The reaction mixtures were deposited directly on TLC plates covered with silica in order to separate the incubation products from the initial substrate. The plates were developed using an ether/petroleum ether/formic acid mixture (50:50:1, v/v/v). The plates were scanned using a radioactivity detector. The chromatograms resulting from the TLC make it possible to determine the degrees of conversion for each cytochrome P450/fatty acid combination, based on the radioactivity detected by the reader. […]

Series [3] relates to ALK3 (Alk3p, cytochrome P450 CYP52). Kind of series: In vitro enzymatic assay: conversion of radiolabeled fatty acids by microsomes of S. cerevisiae WAT11 expressing ALK3 (TLC, GC-MS). The conditions noted are these: NADPH; for Products of conversion by Alk3p seen in TLC chromatograms: fresh microsomes, standardized total protein, duplicate; for Degree of conversion (%): gene ALK3, substrate 100 μM, ND: not detectable; for Reaction product of Alk3p identified by GC-MS (first product peak) / Reaction product of Alk3p identified by GC-MS (second peak, diacid): incubation with Alk3p microsomes, GC-MS of methylated/TMS derivatives. How it is done:
as §1, §2, §3, §4
Preparations of fresh microsomes of yeast expressing Alk3p were carried out. The inventors standardized the total protein content and performed new incubations with lauric acid and palmitic acid and also the abovementioned three C18 fatty acids (stearic acid, oleic acid and linoleic acid). All the reactions were carried out in duplicate in the presence of NADPH for analysis by TLC and GC-MS.
as §5, §6
The reaction mixtures were deposited directly on TLC plates covered with silica in order to separate the incubation products from the initial substrate. The plates were developed using an ether/petroleum ether/formic acid mixture (50:50:1, v/v/v). The plates were scanned using a radioactivity detector.

The test system of series [4] is ALK4 (Alk4p, cytochrome P450 CYP52). Kind of series: In vitro enzymatic assay: conversion of radiolabeled fatty acids by microsomes of S. cerevisiae WAT11 expressing ALK4 (TLC). The note with it: gene ALK4, substrate 100 μM, yeast microsomes, NADPH, ND: not detectable. How it is done:
as §1, §2
The reaction mixtures were deposited on TLC plates, and then developed and analyzed. […]
The expression of the proteins of the 6 members of the 6YP52 family cloned was carried out using a heterologous system specifically designed for the expression of cytochrome P450 enzymes, based on the pYeDP60 vector and the Saccharomyces cerevisiae WAT11 strain. […] The volume of buffer used for resuspending the microsomes was determined by the approximate weight of the wet pellet of yeast obtained after growth (1 ml of buffer per 2 g of cell pellet). […]
(§7) The activity of the cytochrome P450 enzymes was evaluated in vitro using various radiolabeled fatty acids. […]
The reaction mixtures were deposited directly on TLC plates covered with silica in order to separate the incubation products from the initial substrate. […] The plates were scanned using a radioactivity detector. […]

Series [5] concerns ALK11 (Alk11p, cytochrome P450 CYP52). Briefly: In vitro enzymatic assay: conversion of radiolabeled fatty acids by microsomes of S. cerevisiae WAT11 expressing ALK11 (TLC). The note with it: yeast microsomes, NADPH; for Degree of conversion (%): gene ALK11, substrate 100 μM, ND: not detectable. How it is done: as §1, §2, §3, §4
as §5, with “The microsome preparation was stored at −20° C. All the experiments for the microsome preparations were carried out between 0 and 4° C.” left out
as §7
The reaction mixtures were deposited directly on TLC plates covered with silica in order to separate the incubation products from the initial substrate. […] The plates were scanned using a radioactivity detector. The chromatograms resulting from the TLC make it possible to determine the degrees of conversion for each cytochrome P450/fatty acid combination, based on the radioactivity detected by the reader. […]

`CCCCCCCCCCCCCCCCCC(=O)O` [C18:0, stearic acid]: the “Degree of conversion (%)” value in series [1] stood at 2%; in series [3] (yeast microsomes, TLC), 3%. Also, the “Conversion of the fatty acid by Alk2p, in words” value in series [2] was “No significant conversion”. Moreover, the “Products of conversion by Alk3p seen in TLC chromatograms” value (“Products of conversion by Alk3p seen” for short) in series [3] (TLC) is on record as “only an w-oxidation product”. Also, in series [3], the “Reaction product of Alk3p identified by GC-MS (first product peak)” value (“Reaction product … (first product peak)” for short) is reported as 18-hydroxystearic acid derivative.
Consider `CCCCC/C=C\C/C=C\CCCCCCCC(=O)O` [C18:2, linoleic acid], for which the “Degree of conversion (%)” value worked out at 3% in series [4]; 11% in series [1]; 4% in series [5]; 35% in series [3] (yeast microsomes, TLC). For the same compound, the “Products of conversion by Alk3p seen” value in series [3] (TLC) is “two products”. The “Reaction product … (first product peak)” value in series [3] is 18-hydroxylinoleic acid derivative. The “Reaction product of Alk3p identified by GC-MS (second peak, diacid)” value in series [3] is 1,18-octadeca-9,12-dienedioic derivative.
`CCCCCCCC/C=C\CCCCCCCC(=O)O` [C18:1, oleic acid]: the “Degree of conversion (%)” value in series [1] came out at 13%; in series [5] it was 2%; in series [3] (yeast microsomes, TLC), 27%. For the same compound, the “Products of conversion by Alk3p seen” value in series [3] (TLC) is listed as “two products”. For the same compound, the “Reaction product … (first product peak)” value in series [3] is given as 18-hydroxyoleic acid derivative. Moreover, the “Reaction product of Alk3p identified by GC-MS (second peak, diacid)” value in series [3] was 1,18-octadeca-9-enedioic acid.
For `CCCCCCCCCCCCCC(=O)O` [C14:0, myristic acid], the “Degree of conversion (%)” value in series [1] worked out at 27%; in series [2], 1.1%; in series [3] (yeast microsomes, TLC), 68%.
For the compound `CCCCCCCCCCCCCCCC(=O)O` [C16:0, palmitic acid], the “Degree of conversion (%)” value in series [1] was found to be 12%; in series [2], 0.5%.
For `CCCCCCCCCCCC(=O)O` [C12:0, lauric acid], in series [1], the “Degree of conversion (%)” value is 24% and the “Conversion of the fatty acid by Alk5p, in words” value is reported as “capable of metabolizing”. In addition, in series [2], the “Degree of conversion (%)” value turned out to be 7.3% and the “Conversion of the fatty acid by Alk2p, in words” value is “capable of metabolizing”. Further, in series [5], the “Degree of conversion (%)” value is recorded as “Traces” and the “Conversion of the fatty acid by Alk11p, in words” value is on record as “capable of metabolizing”. Moreover, in series [3] (TLC), the “Products of conversion by Alk3p seen” value was “two products”. Moreover, in series [3] (yeast microsomes, TLC), the “Degree of conversion (%)” value is recorded as 65% and the “Conversion of the fatty acid by Alk3p, in words” value was “capable of metabolizing”. In series [3], the “Reaction product … (first product peak)” value is recorded as 12-hydroxylauric acid derivative.

Source of the values: patent publication US20180363011A1, “MICROORGANISMS AND USE THEREOF FOR THE PRODUCTION OF DIACIDS” (FONDS DE DEVELOPPEMENT DES FILIERES DES OLEAGINEUX ET DES …, priority 2015, published 2018).
